Marks after values point to notes of the source that are not given here.
Experiments:
RAW264.7 cells = assay: RAW264.7 cell survival rate by CCK8 method; type: cell-based, mouse; conditions: compound 10 prnol/L, 0.1% DMSO, CCK8, x ± s, n = 3, normal saline control = 1
Method in brief: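 Mouse macrophage RAW264.7 cells exposed to compounds at 10 […] in medium containing 0.1% DMSO final, alongside a 0.1% DMSO saline control. Survival measured by CCK8, given as x±s, with groups compared by one-way ANOVA (p<0.05).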

apoE−/− mice [1] = assay: Atherosclerotic plaque area to total aortic area in apoE-/- mice on high-fat diet (Sudan IV staining); type: in vivo, mouse; conditions: intragastric 15 weeks, compounds 30 mg/(kg·d), simvastatin 10 mg/(kg·d), x ± s, n = 5, saline control 14.67 ± 3.58
Method in brief: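 Male apoE−/− mice, 10 weeks old, ate a high-fat diet (0.15% cholesterol, 21% lard) for 25 weeks and received compounds intragastrically at 30 mg/(kg·d) for 15 weeks from week 10 (n=5). Aortas from root to abdominal bifurcation were formalin-fixed and Sudan IV-stained. Lesion area was expressed as percent of total aortic area.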

apoE−/− mice [2] = assay: Blood lipids (LDL-C, HDL-C) in apoE-/- mice on high-fat diet; type: in vivo, mouse; conditions: apoE-/- mice serum, intragastric 15 weeks, compounds 30 mg/(kg·d), simvastatin 10 mg/(kg·d), x ± s; for HDL-C: n = 5, saline control 3.74 ± 0.62; for LDL-C: n = 5, saline control 7.33 ± 1.03
Method in brief: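 Male apoE−/− mice (ten weeks old) on high-fat diet (0.15% cholesterol, 21% lard) for 25 weeks; from week 10, compounds given intragastrically at 30 mg/(kg·d) for 15 weeks (n=5). Serum TC, LDL-C and HDL-C measured on an automatic biochemical analyzer; one-way ANOVA, p<0.05.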

TNF-α = assay: Local TNF-α level in the arteries of apoE-/- mice (Millipore liquid phase chip); type: in vivo, mouse; conditions: high-fat diet, intragastric 15 weeks, compounds 30 mg/(kg·d), simvastatin 10 mg/(kg·d), x ± s, n = 5, saline control 25.58 ± 6.44
Method in brief: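 Male apoE−/− mice on a high-fat diet (0.15% cholesterol, 21% lard) for 25 weeks received compound at 30 mg/(kg·d) intragastrically from week 10 for 15 weeks (n=5). Arterial TNF-α was then measured with a magnetic bead cytokine panel. Groups were compared by one-way ANOVA.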

[3] = system: RAW264.7 cell-derived foam cells; assay: Formation of RAW264.7 cell-derived foam cells (ox-LDL, oil red O, absorbance 490 nm); type: cell-based, mouse; conditions: 48 hours, model group = 100%, x ± s, n = 3
Method in brief: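 RAW264.7 foam cells, induced with 60 mg/L ox-LDL for 48 h, were treated 48 h with compound at 10 or 30 μmol/L in saline, in triplicate wells. Lipid was stained with oil red O, extracted in isopropanol and read at 490 nm. Values are cell-number-corrected lipid content as % of the model group.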

CCOC(=O)CCNCCC[C@](C)(OC(C)=O)C1CC[C@]2(C)[C@@H]1C(OC(C)=O)CC1[C@@]3(C)CC[C@H](OC(C)=O)C(C)(C)C3CC[C@]12C (stereo partly drawn) [Compound 25]
Cell Survival Rate (RAW264.7 cells): 0.98 ± 0.07 | Plaque area/total aorta area (%) (apoE−/− mice [1]): 8.33 ± 2.44 ^a % | HDL-C (apoE−/− mice [2]): 5.14 ± 0.87 ^a mmol/L | LDL-C (apoE−/− mice [2]): 4.82 ± 1.54 ^a mmol/L | TNF-α level (ng/g) (TNF-α): 11.65 ± 5.45 ^a ng/g | Foam cell formation (%) ([3]; dose 10 μmol/L): 62 ± 18 ^a % | Foam cell formation (%) ([3]; dose 30 μmol/L): 44 ± 15 ^a %

CCOC(=O)C(NCCCCC[C@](C)(OC(C)=O)C1CC[C@]2(C)[C@@H]1C(OC(C)=O)CC1[C@@]3(C)CC[C@H](OC(C)=O)C(C)(C)C3CC[C@]12C)C(C)OCC (stereo partly drawn) [Compound 26]
Cell Survival Rate (RAW264.7 cells): 0.94 ± 0.05 | Plaque area/total aorta area (%) (apoE−/− mice [1]): 9.78 ± 3.17 ^a % | HDL-C (apoE−/− mice [2]): 4.45 ± 0.62 ^a mmol/L | LDL-C (apoE−/− mice [2]): 6.28 ± 0.84 mmol/L | TNF-α level (ng/g) (TNF-α): 16.02 ± 3.11 ^a ng/g | Foam cell formation (%) ([3]; dose 10 μmol/L): 83 ± 21% | Foam cell formation (%) ([3]; dose 30 μmol/L): 72 ± 18 ^a %

COC(=O)[C@H](Cc1ccccc1)NCCC[C@](C)(OC(C)=O)C1CC[C@]2(C)[C@@H]1C(OC(C)=O)CC1[C@@]3(C)CC[C@H](OC(C)=O)C(C)(C)C3CC[C@]12C (stereo partly drawn) [Compound 27]
Cell Survival Rate (RAW264.7 cells): 0.87 ± 0.04 | Plaque area/total aorta area (%) (apoE−/− mice [1]): 10.65 ± 3.82 ^a % | HDL-C (apoE−/− mice [2]): 4.37 ± 0.56 ^a mmol/L | LDL-C (apoE−/− mice [2]): 5.55 ± 1.06 ^a mmol/L | TNF-α level (ng/g) (TNF-α): 17.95 ± 2.15 ^a ng/g | Foam cell formation (%) ([3]; dose 10 μmol/L): 76 ± 12 ^a % | Foam cell formation (%) ([3]; dose 30 μmol/L): 65 ± 18 ^a %

COC(=O)[C@@H](Cc1ccc(O)cc1)NCCC[C@](C)(OC(C)=O)C1CC[C@]2(C)[C@@H]1C(OC(C)=O)CC1[C@@]3(C)CC[C@H](OC(C)=O)C(C)(C)C3CC[C@]12C (stereo partly drawn) [Compound 28]
Cell Survival Rate (RAW264.7 cells): 0.89 ± 0.04 | Plaque area/total aorta area (%) (apoE−/− mice [1]): 8.18 ± 2.89 ^a % | HDL-C (apoE−/− mice [2]): 5.55 ± 0.63 ^a mmol/L | LDL-C (apoE−/− mice [2]): 4.59 ± 1.62 ^a mmol/L | TNF-α level (ng/g) (TNF-α): 11.84 ± 2.91 ^a ng/g | Foam cell formation (%) ([3]; dose 10 μmol/L): 63 ± 11 ^a % | Foam cell formation (%) ([3]; dose 30 μmol/L): 45 ± 16 ^a %

COC(=O)[C@H](Cc1c[nH]cn1)NCCC[C@](C)(OC(C)=O)C1CC[C@]2(C)[C@@H]1C(OC(C)=O)CC1[C@@]3(C)CC[C@H](OC(C)=O)C(C)(C)C3CC[C@]12C (stereo partly drawn) [Compound 29]
Cell Survival Rate (RAW264.7 cells): 1.00 ± 0.16 | Plaque area/total aorta area (%) (apoE−/− mice [1]): 9.67 ± 2.51 ^a % | HDL-C (apoE−/− mice [2]): 4.10 ± 0.78 ^a mmol/L | LDL-C (apoE−/− mice [2]): 6.27 ± 1.59 mmol/L | TNF-α level (ng/g) (TNF-α): 14.93 ± 3.67 ^a ng/g | Foam cell formation (%) ([3]; dose 10 μmol/L): 85 ± 10% | Foam cell formation (%) ([3]; dose 30 μmol/L): 72 ± 18 ^a %

COC(=O)[C@H](Cc1c[nH]c2ccccc12)NCCC[C@](C)(OC(C)=O)C1CC[C@]2(C)[C@@H]1C(OC(C)=O)CC1[C@@]3(C)CC[C@H](OC(C)=O)C(C)(C)C3CC[C@]12C (stereo partly drawn) [Compound 30]
Cell Survival Rate (RAW264.7 cells): 0.95 ± 0.09 | Plaque area/total aorta area (%) (apoE−/− mice [1]): 9.99 ± 3.68 ^a % | HDL-C (apoE−/− mice [2]): 4.42 ± 0.57 ^a mmol/L | LDL-C (apoE−/− mice [2]): 6.37 ± 0.75 mmol/L | TNF-α level (ng/g) (TNF-α): 16.11 ± 4.19 ^a ng/g | Foam cell formation (%) ([3]; dose 10 μmol/L): 78 ± 12 ^a % | Foam cell formation (%) ([3]; dose 30 μmol/L): 64 ± 13 ^a %

Source: patent publication US11091511B2, “Panaxdiol-type ginsenoside derivative, preparation method therefor and use thereof” (ARMY MEDICAL UNIVERSITY, priority 2016, dated 2021)
